Assay results published in article PMC7961048, “Hierarchized phosphotarget binding by the seven human 14-3-3 isoforms” (Nature Communications, 2021).
Where two headings read alike, the source gives them in different places. Starred links: 1 amine or outer side, 2 acyl side, 3 side chain; linkers in the order of their positions; H or OH if unused. Non-standard residues stand in square brackets, D forms with d. Residues, ends and D or L forms follow the SMILES beside them. *: point of attachment. X1 = O=C(CCCC[C@@H]1SC[C@@H]2NC(=O)N[C@@H]21)NCCCOCCOCCOCCCN*; pT = C[C@@H](OP(=O)(O)O)[C@H](N)C(=O)O; Suc = O=C(CCC(=O)[*:2])[*:1]

Experiments:
Assay in all cases: biochemical
Assay type in all cases: binding
14-3-3β = target: T1, 14-3-3β (Homo sapiens, UniProt P31946)
T1 construct: cDNAs encoding other full-length 14-3-3 isoforms β, τ, η, and σ were obtained as codon-optimized; made in house; host or cells: E. coli BL21(DE3)
T1 sequence (P31946 1-246): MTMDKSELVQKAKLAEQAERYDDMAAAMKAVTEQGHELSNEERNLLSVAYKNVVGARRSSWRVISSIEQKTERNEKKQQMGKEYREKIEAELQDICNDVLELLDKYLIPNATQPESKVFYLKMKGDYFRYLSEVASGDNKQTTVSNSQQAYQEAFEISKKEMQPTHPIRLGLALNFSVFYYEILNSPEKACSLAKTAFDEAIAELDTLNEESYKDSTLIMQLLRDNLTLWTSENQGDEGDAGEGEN
Procedure: (§1) The seven full-length human 14-3-3 isoforms, produced as fusions to a maltose-binding protein (MBP), were analyzed for their interaction with four phospho-PBMs from E6 proteins of HPV types 16, 18, 33, and 35 belonging to subgroups 1 and 2 (as defined in Supplementary Fig. 1). For comparison, we also measured two non-viral phospho-PBMs originating from protein kinase RSK1[28]. We used a competitive fluorescence polarization (FP) assay that measures the displacement of a fluorescent tracer phosphopeptide (here, derived from the HSPB6 protein) bound beforehand to 14-3-3, by an increasing amount of the peptide of interest.
(§2) For affinity measurements, full-length human 14-3-3 constructs with an N-terminal MBP fusion were used. Plasmids containing the cDNAs of the full-length 14-3-3 isoforms ε, γ, and ζ were received from Prof. Lawrence Banks. cDNAs encoding other full-length 14-3-3 isoforms β, τ, η, and σ were obtained as codon-optimized for E. coli expression synthetic genes from IDT Technologies (Coralville, Iowa, USA). All 14-3-3 isoforms were fused via a three-alanine linker to the C terminus of a mutant MBP carrying the following amino acid substitutions facilitating crystallization: D83A, K84A, K240A, E360A, K363A, and D364A[62]. All resulting clones were verified by sequencing. The MBP-fused proteins were expressed in E. coli BL21(DE3) with IPTG induction. Proteins were affinity purified on an amylose column and were further purified by ion-exchange chromatography (HiTrap Q HP, GE Healthcare). Unfused 14-3-3 isoforms devoid of the flexible C-terminal tails (14-3-3βΔC, 14-3-3τΔC 14-3-3εΔC) were expressed using IPTG induction and purified by subtractive IMAC and SEC[40]. Protein concentrations were determined by UV spectroscopy. The samples were supplemented with glycerol and TCEP before aliquoting and freezing in liquid nitrogen.
(§3) Unless otherwise stated, all phosphopeptide-binding measurements were performed using full-length 14-3-3 proteins fused to the C terminus of MBP, favoring optimal solubility and a standardized parallel purification scheme.
(§4) FP was measured with a PHERAstar (BMG Labtech, Offenburg, Germany) microplate reader by using 485 ± 20 and 528 ± 20 nm band-pass filters (for excitation and emission, respectively). In direct FP measurements, a dilution series of the 14-3-3 protein was prepared in 96-well plates (96-well skirted PCR plate, 4ti-0740, 4titude, Wotton, UK) in a 20 mM HEPES pH 7.5 buffer containing 150 mM NaCl, 0.5 mM TCEP, 0.01% Tween 20, 50 nM fluorescently labeled fpB6 peptide, and 100 μM FSC, if indicated. The volume of the dilution series was 40 μl, which was later divided into three technical replicates of 10 μl upon transferring to 384-well micro-plates (low binding microplate, 384 well, E18063G5, Greiner Bio-One, Kremsmünster, Austria). In total, polarization of the probe was measured at eight different protein concentrations (whereas one contained no protein and corresponded to the free peptide). In competitive FP measurements, the same buffer was supplemented with the protein to achieve a complex formation of 60–80%, based on the direct titration. Then, this mixture was used for creating a dilution series of the unlabeled competitor (i.e., the studied peptides) and the measurement was carried out identically as in the direct experiment.
(§5) All FP experiments were done in triplicates. Analysis of FP experiments were carried out using ProFit, an in-house developed, Python-based fitting program. ProFit utilizes a Monte Carlo approach to take into account experimental variability. It generates hundreds of simulated datasets, based on the experimental data variance and fits direct and competitive measurements in pairs.

14-3-3γ = target: T2, 14-3-3γ (Homo sapiens, UniProt P61981)
T2 construct: full-length human 14-3-3 constructs with an N-terminal MBP fusion were used; made in house; host or cells: E. coli BL21(DE3)
T2 sequence (P61981 1-247): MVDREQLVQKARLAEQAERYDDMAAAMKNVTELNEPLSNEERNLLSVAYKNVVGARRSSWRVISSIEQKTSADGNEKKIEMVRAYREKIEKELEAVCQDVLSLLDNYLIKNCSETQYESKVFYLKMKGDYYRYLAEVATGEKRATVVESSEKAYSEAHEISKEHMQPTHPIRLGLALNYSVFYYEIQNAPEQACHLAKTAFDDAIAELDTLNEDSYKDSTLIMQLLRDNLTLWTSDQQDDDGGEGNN
Procedure: as §1, §2, §3, §4, §5

14-3-3σ = target: T3, 14-3-3σ (Homo sapiens, UniProt P31947)
T3 construct: cDNAs encoding other full-length 14-3-3 isoforms β, τ, η, and σ were obtained as codon-optimized; made in house; host or cells: E. coli BL21(DE3)
T3 sequence (P31947 1-248): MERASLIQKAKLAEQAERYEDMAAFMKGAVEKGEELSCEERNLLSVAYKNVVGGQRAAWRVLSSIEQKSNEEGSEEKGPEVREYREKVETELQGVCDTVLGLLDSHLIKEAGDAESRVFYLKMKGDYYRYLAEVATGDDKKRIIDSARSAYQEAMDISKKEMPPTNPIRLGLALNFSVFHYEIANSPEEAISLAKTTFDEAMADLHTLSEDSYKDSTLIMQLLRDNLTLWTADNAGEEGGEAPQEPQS
Procedure: as §1, §2, §3, §4, §5

14-3-3τ = target: T4, 14-3-3τ (Homo sapiens, UniProt P27348)
T4 construct: cDNAs encoding other full-length 14-3-3 isoforms β, τ, η, and σ were obtained as codon-optimized; made in house; host or cells: E. coli BL21(DE3)
T4 sequence (P27348 1-245): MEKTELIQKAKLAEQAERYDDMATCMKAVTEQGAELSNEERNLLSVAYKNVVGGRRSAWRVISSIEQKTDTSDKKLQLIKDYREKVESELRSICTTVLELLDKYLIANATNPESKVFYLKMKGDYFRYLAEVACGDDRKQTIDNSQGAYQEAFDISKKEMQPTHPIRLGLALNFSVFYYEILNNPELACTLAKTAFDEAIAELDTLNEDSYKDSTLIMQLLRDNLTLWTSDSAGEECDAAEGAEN
Procedure: as §1, §2, §3, §4, §5

[1] = Figure 4 panel a, unit from the colour scale line, motifs measured in this work

| Structure (SMILES) | Kd (14-3-3β) | Kd (14-3-3γ) | Kd (14-3-3σ) | Binding affinities (KD) of various 14-3-3-binding motifs, 14-3-3σ (14-3-3σ; [1]) | Kd (14-3-3τ) | Binding affinities (KD) of various 14-3-3-binding motifs, 14-3-3τ (14-3-3τ; [1]) | Kd (14-3-3γ; Binding affinities (KD) of various 14-3-3-binding motifs, 14-3-3γ) | Kd (14-3-3γ; KD (μM) ± std 14-3-3γ) | Binding affinities (KD) of various 14-3-3-binding motifs, 14-3-3β (14-3-3β) | Binding affinities (KD) of various 14-3-3-binding motifs, 14-3-3σ (14-3-3σ) |
| --- | --- | --- | --- | --- | --- | --- | --- | --- | --- | --- |
| CC(C)C[C@H](NC(=O)[C@H](CCC(N)=O)NC(=O)[C@@H](NC(=O)[C@H](CCC(=O)O)NC(=O)[C@H](CCCNC(=N)N)NC(=O)[C@H](CCCNC(=N)N)NC(=O)[C@@H](NC(=O)[C@H](CCCNC(=N)N)NC(=O)[C@H](CO)NC(=O)[C@H](CO)NC(=O)CCC(=O)NCCCOCCOCCOCCCNC(=O)CCCC[C@@H]1SC[C@@H]2NC(=O)N[C@@H]21)[C@@H](C)O)[C@@H](C)OP(=O)(O)O)C(=O)O [pHPV16E6] | 159 ± 45 µM | 37.2 ± 3 µM | > 300 µM | √ | 144 ± 28 µM | 144 µM |  |  |  |  |
| CC(C)C[C@H](NC(=O)[C@H](CCCNC(=N)N)NC(=O)CCC(=O)NCCCOCCOCCOCCCNC(=O)CCCC[C@@H]1SC[C@@H]2NC(=O)N[C@@H]21)C(=O)N[C@@H](CCC(N)=O)C(=O)N[C@@H](CCCNC(=N)N)C(=O)N[C@@H](CCCNC(=N)N)C(=O)N[C@@H](CCCNC(=N)N)C(=O)N[C@@H](CCC(=O)O)C(=O)N[C@H](C(=O)N[C@@H](CCC(N)=O)C(=O)N[C@H](C(=O)O)C(C)C)[C@@H](C)OP(=O)(O)O [pHPV18E6] | 42.2 ± 6.3 µM | 11.1 ± 0.6 µM | 139 ± 24 µM |  | 37.8 ± 6 µM |  |  |  |  |  |
| CC(C)C[C@H](NC(=O)[C@H](C)NC(=O)[C@@H](NC(=O)[C@H](CCC(=O)O)NC(=O)[C@H](CCCNC(=N)N)NC(=O)[C@H](CCCNC(=N)N)NC(=O)[C@H](CCCNC(=N)N)NC(=O)[C@H](CO)NC(=O)[C@H](CCCNC(=N)N)NC(=O)[C@H](CO)NC(=O)CCC(=O)NCCCOCCOCCOCCCNC(=O)CCCC[C@@H]1SC[C@@H]2NC(=O)N[C@@H]21)[C@@H](C)OP(=O)(O)O)C(=O)O [pHPV33E6] ({X1-Suc}-SRSRRRE[pT]AL-OH) | 4.05 µM |  | 6.77 µM |  | 3.52 µM |  | 0.94 µM | < 1 µM |  |  |
| CC(C)[C@H](NC(=O)[C@H](C)NC(=O)[C@@H](NC(=O)[C@H](CCC(=O)O)NC(=O)[C@H](CCCNC(=N)N)NC(=O)[C@H](CCCNC(=N)N)NC(=O)[C@@H](NC(=O)[C@@H]1CCCN1C(=O)[C@H](CCCCN)NC(=O)[C@H](CO)NC(=O)CCC(=O)NCCCOCCOCCOCCCNC(=O)CCCC[C@@H]1SC[C@@H]2NC(=O)N[C@@H]21)[C@@H](C)O)[C@@H](C)OP(=O)(O)O)C(=O)O [pHPV35E6E-1A] ({X1-Suc}-SKPTRRE[pT]AV-OH) | 20.2 µM | 9.31 µM | 44.1 µM |  | 21.5 µM |  |  |  |  |  |
| CC(C)[C@H](NC(=O)[C@H](CCC(=O)O)NC(=O)[C@@H](NC(=O)[C@H](CCC(=O)O)NC(=O)[C@H](CCCNC(=N)N)NC(=O)[C@H](CCCNC(=N)N)NC(=O)[C@H](CCCNC(=N)N)NC(=O)[C@@H]1CCCN1C(=O)[C@H](CCCCN)NC(=O)[C@H](CO)NC(=O)CCC(=O)NCCCOCCOCCOCCCNC(=O)CCCC[C@@H]1SC[C@@H]2NC(=O)N[C@@H]21)[C@@H](C)OP(=O)(O)O)C(=O)O [pHPV35E6T-6R] ({X1-Suc}-SKPRRRE[pT]EV-OH) | 179 ± 29 µM | 71.2 ± 6.7 µM | > 300 µM | √ | 194 ± 37 µM |  |  |  |  |  |
| CC(C)[C@H](NC(=O)[C@H](CCC(=O)O)NC(=O)[C@@H](NC(=O)[C@H](CCC(=O)O)NC(=O)[C@H](CCCNC(=N)N)NC(=O)[C@H](CCCNC(=N)N)NC(=O)[C@@H](NC(=O)[C@@H]1CCCN1C(=O)[C@H](CCCCN)NC(=O)[C@H](CO)NC(=O)CCC(=O)NCCCOCCOCCOCCCNC(=O)CCCC[C@@H]1SC[C@@H]2NC(=O)N[C@@H]21)[C@@H](C)O)[C@@H](C)OP(=O)(O)O)C(=O)O [pHPV35E6] ({X1-Suc}-SKPTRRE[pT]EV-OH) | > 300 µM |  | > 300 µM |  | 233 ± 14 µM |  |  | 125 ± 6 µM | √ | √ |
